Series [1] is described as follows: Stability under pharmacological experimental conditions (RPMI 1640 medium, liquid phase detection). In kind it is physicochemical. On the procedure: Experimental method: Samples A-E were prepared and detected by liquid phase. Details are as follows.
A: The purity of compound E was detected by liquid phase, and the peak time of compound E was judged.
B: Liquid detection RPMI 1640 medium
C: Compound E was dissolved in the RPMI 1640 medium and detected by liquid phase.
D: Compound E was dissolved in the RPMI 1640 medium and placed in the incubator for 24 hours before detection by liquid phase.
E: Compound E was dissolved in the RPMI 1640 medium and placed in the incubator for 48 hours before detection by liquid phase.

Series [2] relates to HCT116 (human colorectal cancer cell line). Briefly: MTT anti-proliferative assay, HCT116. The class given is cell-based. The settings on record: means ± SD, n = 3. An outline of the steps: (§1)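 Cells seeded at 1 × 10^4–1.2 × 10^4 per well were allowed to adhere 24 h, then exposed 48 h at 37 °C, 5% CO2 to compound at 1.25, 2.5, 5 and 10 μM (DMSO ≤0.1%). MCF-7 and HepG2 were grown in DMEM, HCT116 and BEL7402 in RPMI 1640, each with 10% FBS. MTT (final 2 mg/ml) was added for 4 h; formazan was dissolved in DMSO and read at 492 nm.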
In general terms: Tetrazolium dyes change colour on reduction, which living cells bring about.

The test system of another series is Bcl-2. Briefly: Western blot, Bcl-2 expression. The class given is cell-based, human. To be noted: HCT116, 10 μM, 24 h. How it is done: (§2) The Bcl-2 protein family (including the anti-apoptotic protein Bcl-2 and the pro-apoptotic protein Bax) is a group of key apoptotic proteins that play an important role in the regulation of apoptosis ([Han et al., 2013]; [Zhang and Saghatelian, 2013]; [Zheng et al., 2021]). HCT116 cells were treated with different concentrations (2.5, 5, and 10 μM) of E to detect the expression of Bax and Bcl-2 proteins.
(§3) FIGURE 7 Effect of compound E on the levels of Bax, and Bcl-2 in HCT116 cells. Cells were pretreated with the various concentrations of compound E (2.5, 5 and 10 μM) for 24 h. The expression of Bax, and Bcl-2 were analyzed by Western blot. ***p < 0.001, **p < 0.01, *p < 0.05 vs. control group. The error bars represent the mean ± SD for three independent experiments.
(§4) HCT116 cells were cultured with different concentrations of compound E for 24 h. Then, the floating cells were collected and washed twice with ice-cold PBS. Add cold RIPA buffer. After the cells were lysed on ice for 20 min, the lysate was centrifuged at 12,000 rpm for 15 min at 4°C. The BCA method determines the protein concentration. Separated by SDS/PAGE electrophoresis and transferred to a nitrocellulose filter membrane for Western blot analysis. The membrane was blocked with PBS containing 5% skim milk at room temperature for 2 h. […] The protein is detected by electrochemiluminescence (Bio-Rad, CA, United State).
In general terms: In western blotting, separated proteins are transferred to a membrane and probed.

The next series has as its system HCT116 cells. Briefly: H&E staining of morphological changes. The class given is cell-based, human. The settings on record: HCT116, 2.5, 5, 10 μM, 24 h. How it is done: Induction of apoptosis is the mechanism of action of many anti-proliferative drugs. When cells undergo apoptosis, they generally also undergo morphological changes ([Liu et al., 2009]). Therefore, we used H&E staining to assess morphological changes in the cells.
FIGURE 5 Cell morphological alterations and nuclear changes associated with HCT116 cells after incubation with varying concentrations E (0, 2.5, 5, 10 μM) for 24 h were assessed by staining with H&E and visualized by microscopy.

In series [3] the test system is HepG2 (human hepatocellular carcinoma cell line). Briefly: MTT anti-proliferative assay, HepG2. The class given is cell-based. The settings on record: means ± SD, n = 3. Summed up: as §1
The test system of series [4] is L02 (human normal liver cells). Briefly: Cytotoxicity against normal cell line L02. In kind it is cell-based. The source says:
The lack of selectivity between normal and cancer cells is one of the main limitations of antitumor drugs ([Dy and Adjei, 2013]). Therefore, we evaluated the cytotoxicity of compounds B2, and E in normal cell lines L02 (human normal liver cells) to determine the selectivity index (ratio of cytotoxicity in L02 cells compared to that in cancer cells). […] Therefore, this compound was chosen for further biological studies.
The propidium iodide (PI) and Annexin V-FITC apoptosis detection kit were purchased from Invitrogen (Eugene, OR, United States). 3-(4,5-Dimethylthiazol-2-yl)-2,5-diphenyl-2H-tetrazolium bromide (MTT) was purchased from Sigma-Aldrich Co. (St. Louis, MO, United States). All human cell lines were used in this study, colorectal cancer cell HCT116, colorectal cancer cell SW620, breast cancer cell MCF-7, liver hepatocellular carcinoma cell BEL7402, liver hepatocellular carcinoma HepG2 and normal liver cell L02 were initially purchased from American Type Culture Collection (ATCC, Manassas, VA, United States). RPMI-1640 media, Dulbecco’s modified Eagle’s medium (DMEM), and foetal bovine serum (FBS) were provided from Gibco Company (Grand Island, NY, United States). Cell line MCF-7 and HepG2 were cultivated in DMEM containing 10% (v/v) heat-inactivated FBS, 100 units/ml penicillin and […] streptomycin (Grand Island, NY, United States). Cell lines HCT116, BEL7402, SW620, and L02 were cultivated in RPMI 1640 medium containing 10% (v/v) heat-inactivated FBS, 100 units/ml penicillin, and […] streptomycin. The cells were incubated at 37°C under a 5% CO2 and 90% relative humidity (RH) atmosphere.
Stock solutions were prepared by diluting target compounds in DMSO at concentrations (1.25, 2.5, 5, and 10 mM). The stock solution was then diluted (1.25, 2.5, 5, and 10 μM) with culture medium, and the concentration of DMSO was controlled not to exceed 0.1%.
Place the cells in a 96-well plate at an appropriate density to ensure exponential growth (1 × 10^4–1.2×10^4 cells per well) throughout the experiment, and then allow the cells to adhere for 24 h. The cells were then treated with continuous concentrations of each compound (1.25, 2.5, 5, and 10 μM) for 48 h. After 48 h of incubation, 15 μl of MTT solution was added to each well, and the final concentration was 2 mg/ml. Then incubate for another 4 h. After incubation, remove the MTT solution and add […] of DMSO to each well for staining. Shake vigorously for 10 min at room temperature to ensure complete dissolution. The optical density (OD) was read on a microplate reader (ELx 800, BioTek, Highland Park, Winooski, VT, United States) with a wavelength of 492 nm, and then the data was analyzed.

For another series, the system named is Bax. The series can be described thus: Western blot, Bax expression. The class given is cell-based, human. The settings on record: HCT116, 10 μM, 24 h. How it is done:
as §2, §3, §4

Consider `CC1(C)CC[C@]2(C(=O)OCCn3nnnc3-c3ccccc3)[C@H](O)C[C@]3(C)C(=CC[C@@H]4[C@@]5(C)CC[C@H](O)[C@@](C)(C=O)[C@@H]5CC[C@]43C)[C@@H]2C1` [Compound E, 2-(5-phenyl-1H-tetrazol-1-yl)ethyl (4aR,5R,6aS,6bR,8aR,9S,10S,12aR,12bR,14bS)-9-formyl-5,10-dihydroxy-2,2,6a,6b,9,12a-hexamethyl-1,3,4,5,6,6a,6b,7,8,8a,9,10,11,12,12a,12b,13,14b-octadecahydropicene-4a (2H)-carboxylate], for which the “content of compound E (HPLC peak)” value in series [1] (after 24 hours in incubator) was found to be 20.495%; in series [1] (after 48 hours in incubator), 19.557%; in series [1] (check directly/0 hours), 20.461%. For the same compound, the “stability under pharmacological experimental conditions” value in series [1] (incubator, up to 48 hours) is recorded as “high stability”. The “IC50 values HCT116” value in series [2] (48 h incubation) is reported as “strong activity”. For the same compound, the IC50 was 2.46 ± 0.44 µM in series [2] (Homo sapiens, HCT-116, 48 h incubation); 8.89 ± 2.24 µM in series [3] (Homo sapiens, HepG2, 48 h incubation); greater than 10 µM in series [4] (Homo sapiens, normal cell line L02). For the same compound, the “level of Bcl-2” value in the series with Bcl-2 was “decreased”. In addition, the “morphological changes (H&E staining)” value with HCT116 cells is given as “significant apoptotic morphological changes”. Besides, the “IC50 values HepG2” value in series [3] (48 h incubation) was “strong activity”. Moreover, in series [4] (IC50 on normal cells (L02)/IC50 on tumour cells (BEL7402)), the “Selectivity index BEL7402” value is recorded as greater than 1.45. For the same compound, in series [4] (IC50 on normal cells (L02)/IC50 on tumour cells (HCT116)), the “Selectivity index HCT116” value is listed as greater than 4.06. For the same compound, the “Selectivity index HepG2” value in series [4] (IC50 on normal cells (L02)/IC50 on tumour cells (HepG2)) is greater than 1.12. Moreover, in series [4] (IC50 on normal cells (L02)/IC50 on tumour cells (SW620)), the “Selectivity index SW620” value is on record as greater than 2.13. Also, the “expression of Bax” value in the series with Bax was “significantly increased”.

In general, IC50 refers to the point on the concentration scale where inhibition reaches its midpoint. Higher therefore signals weaker potency.
